The NIST ThermoML archive (doi:10.1021/je034102r)

Assay: molar heat capacity at constant pressure
Settings: 101.33 kPa, Liquid, heat bridge-scanning calorimeter

CCCCn1cc[n+](C)c1.F[P-](F)(F)(F)(F)F [1-butyl-3-methylimidazolium hexafluorophosphate]
Settings | molar heat capacity at constant pressure [J/K/mol]
451.55 K | 488.51
451.69 K | 488.51
451.82 K | 489.08
451.96 K | 489.36
452.1 K | 489.36
452.23 K | 489.08
452.53 K | 489.08
452.67 K | 488.79
452.8 K | 489.65
452.94 K | 490.5
453.07 K | 491.07
453.21 K | 490.5
453.35 K | 490.21
453.48 K | 489.93
453.62 K | 489.65
453.92 K | 489.65
454.06 K | 489.93
454.2 K | 489.93
454.33 K | 489.93
454.47 K | 489.65
454.61 K | 489.65
454.74 K | 489.93
454.88 K | 489.93
455.02 K | 489.93
455.15 K | 489.93
455.29 K | 489.93
455.59 K | 490.5
455.72 K | 490.5
455.86 K | 490.21
456 K | 490.5
456.13 K | 490.78
456.28 K | 490.78
456.42 K | 490.78
456.56 K | 490.78
456.69 K | 491.07
457 K | 491.35
457.13 K | 491.35
457.27 K | 491.35
457.41 K | 491.07
457.54 K | 491.07
457.68 K | 491.64
457.82 K | 491.64
457.95 K | 491.64
458.09 K | 491.64
458.23 K | 492.2
458.37 K | 492.49
458.66 K | 492.49
458.8 K | 492.2
458.93 K | 491.92
459.07 K | 491.92
459.21 K | 491.92
459.35 K | 492.2
459.48 K | 492.49
459.62 K | 492.77
459.76 K | 493.34
460.06 K | 492.49
460.19 K | 492.77
460.33 K | 494.19
460.47 K | 495.05
460.6 K | 494.76
460.74 K | 494.48
460.88 K | 493.62
461.01 K | 493.06
461.15 K | 492.77
461.28 K | 492.77
461.42 K | 493.06
461.72 K | 493.34
461.85 K | 493.06
461.99 K | 492.77
462.12 K | 493.06
462.26 K | 493.06
462.4 K | 492.77
462.53 K | 493.34
462.67 K | 493.06
462.82 K | 493.06
463.12 K | 493.34
463.26 K | 493.06
463.39 K | 493.62
463.53 K | 493.34
463.67 K | 493.34
463.81 K | 493.62
463.94 K | 493.62
464.08 K | 493.62
464.22 K | 493.62
464.35 K | 494.48
464.49 K | 495.33
464.79 K | 497.32
464.92 K | 496.18
465.06 K | 495.33
465.2 K | 494.76
465.34 K | 494.48
465.47 K | 495.05
465.61 K | 495.9
465.75 K | 495.9
465.89 K | 496.47
466.19 K | 494.76
